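All cell lines were grown in 96-well plates and treated with compound for 48 hours. TGI marks complete inhibition of growth.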
Tests used:
Assay in all cases: NCI-60 cell line screen, 48 h
UO-31 renal = tested on: UO-31 renal
KM12 colon = tested on: KM12 colon
SK-MEL-28 melanoma = tested on: SK-MEL-28 melanoma
TK-10 renal = tested on: TK-10 renal
OVCAR-8 ovarian = tested on: OVCAR-8 ovarian
SN12C renal = tested on: SN12C renal
SNB-19 CNS = tested on: SNB-19 CNS
HOP-92 NSCLC = tested on: HOP-92 NSCLC
SK-MEL-2 melanoma = tested on: SK-MEL-2 melanoma
CAKI-1 renal = tested on: CAKI-1 renal
HS 578T breast = tested on: HS 578T breast
U251 CNS = tested on: U251 CNS
PC-3 prostate = tested on: PC-3 prostate
SF-539 CNS = tested on: SF-539 CNS
LOX IMVI melanoma = tested on: LOX IMVI melanoma
COLO 205 colon = tested on: COLO 205 colon
UACC-257 melanoma = tested on: UACC-257 melanoma
SK-OV-3 ovarian = tested on: SK-OV-3 ovarian
SW-620 colon = tested on: SW-620 colon
HCT-116 colon = tested on: HCT-116 colon
OVCAR-3 ovarian = tested on: OVCAR-3 ovarian
SF-268 CNS = tested on: SF-268 CNS
T-47D breast = tested on: T-47D breast
HL-60(TB) leukemia = tested on: HL-60(TB) leukemia
SK-MEL-5 melanoma = tested on: SK-MEL-5 melanoma
786-0 renal = tested on: 786-0 renal
M14 melanoma = tested on: M14 melanoma
CCRF-CEM leukemia = tested on: CCRF-CEM leukemia
EKVX NSCLC = tested on: EKVX NSCLC
NCI-H460 lung = tested on: NCI-H460 lung
A549 NSCLC = tested on: A549 NSCLC
BT-549 breast = tested on: BT-549 breast
MALME-3M melanoma = tested on: MALME-3M melanoma
SF-295 CNS = tested on: SF-295 CNS
HOP-62 NSCLC = tested on: HOP-62 NSCLC
OVCAR-5 ovarian = tested on: OVCAR-5 ovarian
UACC-62 melanoma = tested on: UACC-62 melanoma
DU-145 prostate = tested on: DU-145 prostate
HCT-15 colon = tested on: HCT-15 colon
A498 renal = tested on: A498 renal
HT29 colon = tested on: HT29 colon
MDA-MB-231 breast = tested on: MDA-MB-231 breast
NCI-H522 lung = tested on: NCI-H522 lung
NCI-H23 lung = tested on: NCI-H23 lung
RXF 393 renal = tested on: RXF 393 renal
IGROV1 ovarian = tested on: IGROV1 ovarian
NCI/ADR-RES ovarian = tested on: NCI/ADR-RES ovarian
MOLT-4 leukemia = tested on: MOLT-4 leukemia
OVCAR-4 ovarian = tested on: OVCAR-4 ovarian
NCI-H226 lung = tested on: NCI-H226 lung
MDA-MB-435 = tested on: MDA-MB-435
K-562 leukemia = tested on: K-562 leukemia
ACHN renal = tested on: ACHN renal

## Cc1ccc(-n2cnc3c(N/N=C4\SCC(=O)N4c4ccccc4)ncnc32)cc1
UO-31 renal
  TGI: 17.9 µM
KM12 colon
  TGI: 7.88 µM
SK-MEL-28 melanoma
  TGI: 11.4 µM
TK-10 renal
  TGI: 14.3 µM
OVCAR-8 ovarian
  TGI: 11.8 µM
SN12C renal
  TGI: 11.7 µM
SNB-19 CNS
  TGI: 24.4 µM
HOP-92 NSCLC
  TGI: 11.3 µM
SK-MEL-2 melanoma
  TGI: 8.42 µM
CAKI-1 renal
  TGI: 18.9 µM
HS 578T breast
  TGI: 26.6 µM
U251 CNS
  TGI: 16.2 µM
PC-3 prostate
  TGI: 17.8 µM
SF-539 CNS
  TGI: 3.71 µM
LOX IMVI melanoma
  TGI: 10.3 µM
COLO 205 colon
  TGI: 17.1 µM
UACC-257 melanoma
  TGI: 18.3 µM
SK-OV-3 ovarian
  TGI: 27.7 µM
SW-620 colon
  TGI: 16.5 µM
HCT-116 colon
  TGI: 13 µM
OVCAR-3 ovarian
  TGI: 11.5 µM
SF-268 CNS
  TGI: 19.7 µM
T-47D breast
  TGI: 18.7 µM
HL-60(TB) leukemia
  TGI: 4.29 µM
SK-MEL-5 melanoma
  TGI: 16 µM
786-0 renal
  TGI: 12.1 µM
M14 melanoma
  TGI: 13.4 µM
CCRF-CEM leukemia
  TGI: 4.93 µM
EKVX NSCLC
  TGI: 29 µM
NCI-H460 lung
  TGI: 13.2 µM
A549 NSCLC
  TGI: 29.6 µM
BT-549 breast
  TGI: 14.1 µM
MALME-3M melanoma
  TGI: 16.3 µM
SF-295 CNS
  TGI: 27.6 µM
HOP-62 NSCLC
  TGI: 28.9 µM
OVCAR-5 ovarian
  TGI: 25.4 µM
UACC-62 melanoma
  TGI: 17.2 µM
DU-145 prostate
  TGI: 17.5 µM
HCT-15 colon
  TGI: 11.5 µM
A498 renal
  TGI: 27.2 µM
HT29 colon
  TGI: 15 µM
MDA-MB-231 breast
  TGI: 10.5 µM
NCI-H522 lung
  TGI: 7.28 µM
NCI-H23 lung
  TGI: 14 µM
RXF 393 renal
  TGI: 5.8 µM
IGROV1 ovarian
  TGI: 15 µM
NCI/ADR-RES ovarian
  TGI: 53.8 µM
MOLT-4 leukemia
  TGI: 5.48 µM
OVCAR-4 ovarian
  TGI: 21.2 µM
NCI-H226 lung
  TGI: 20.4 µM
MDA-MB-435
  TGI: 13.3 µM
K-562 leukemia
  TGI: > 100 µM
ACHN renal
  TGI: 18.6 µM

— PubChem BioAssay (NCI)
